Calls of active or inactive are those of the source.
Experiments:
[1] = biological target: Glutathione-S-transferase (Schistosoma japonicum, UniProt Q26513); experiment: biotin-GST/anti-GST TR-FRET signal inhibitors, dose response, artefact control for Vif-APOBEC3G degradation inhibitor project, biochemical (AID 1117362); type: functional
Estrogen receptor beta = Estrogen receptor beta (Homo sapiens, UniProt Q92731);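 note: recombinant ER-beta bound to coactivator SRC1 peptide in presence of estradiol agonist; inhibitors block coactivator peptide binding and lower the FRET signal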
[2] = THP-1 cell cytotoxicity, dose response, cytotoxicity control for Vif-APOBEC3G degradation inhibitor project, THP-1 cells (AID 1117359); type: functional; conditions: Human immunodeficiency virus 1, THP-1
[3] = biological target: Glucose-6-phosphate 1-dehydrogenase (Homo sapiens, UniProt P11413); experiment: human G6PD enzyme inhibitors, dose response, selectivity assay for P. falciparum G6PD inhibitor project, biochemical, fluorescence (AID 504792); type: functional
[4] = inhibitors of HIV Env-driven cell fusion, dose response, cherry-pick (AID 652057); type: functional, cell-based
[5] = ZM109 Env clade C HIV-1 fusion inhibitors, dose response, HeLa effector, CEM target cells, luciferase, cherry-pick (AID 652058); type: functional, cell-based
[6] = inhibitors of clade B AD8 Env fusion, dose response, cell-based, cherry-pick (AID 652062); type: functional;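 note: luciferase signal from cell-cell fusion driven by HIV-1 clade B AD8 Env; potency is for inhibitors of fusion seen as a drop in luminescence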
[7] = off-target signal loss in HeLa-CEM21 co-culture – HeLa F-luc CTL cells, cherry-picked, counter-screen for HIV-1 Env fusion inhibitor project, dose response (AID 652040); type: functional, cell-based;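 note: potency for signal decrease marking cytotoxic or nonspecific inhibition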
[8] = biological target: T1, Oxysterols receptor LXR-beta (Homo sapiens, UniProt P55055); experiment: LXR agonists, Gal4 luciferase reporter, dose response, counter-screen for ssDAF-12 agonist project, cell-based, luminescence, HEK293, S. stercoralis campaign (AID 720737); type: functional; conditions: read-out: IC50 (the source's name)
T1 sequence (P55055 whole entry): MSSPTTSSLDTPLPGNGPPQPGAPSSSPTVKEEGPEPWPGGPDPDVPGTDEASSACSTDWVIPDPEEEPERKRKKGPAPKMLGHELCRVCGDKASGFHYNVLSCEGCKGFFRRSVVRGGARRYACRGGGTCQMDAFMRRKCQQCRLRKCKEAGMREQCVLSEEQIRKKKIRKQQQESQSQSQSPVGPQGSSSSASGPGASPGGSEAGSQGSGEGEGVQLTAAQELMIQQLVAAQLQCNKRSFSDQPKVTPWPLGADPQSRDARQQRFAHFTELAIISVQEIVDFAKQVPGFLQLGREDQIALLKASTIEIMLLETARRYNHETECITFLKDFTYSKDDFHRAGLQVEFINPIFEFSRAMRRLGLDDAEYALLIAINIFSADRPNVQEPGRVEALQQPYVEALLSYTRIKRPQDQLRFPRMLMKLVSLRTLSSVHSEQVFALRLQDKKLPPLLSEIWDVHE

[9] = CEM21 lymphoblast cell cytotoxicity, dose response, cytotoxicity control for viral fusion inhibitor project, CellTiter-Glo luminescence, cherry-picked (AID 652042); type: functional, cell-based;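 note: potency for signal decrease meaning cytotoxicity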
[10] = Luminescence-based cell-based high throughput dose response assay to identify activators of the DAF-12 from the parasite S. stercoralis (ssDAF-12).; type: functional
[11] = cytotoxicity in OVCAR8 ovarian cancer cells, dose response, PAX8 project, cell-based, plate reader, dry powder samples (AID 743197); type: functional; conditions: OVCAR-8
[12] = P. falciparum ATP4 D1247Y mutant growth inhibitors, dose response, NITD609-resistant line, SYBR Green, dry powder (AID 1159571); type: functional, cell-based;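 note: parasites synchronized at ring stage by sorbitol before testing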
Paired box protein Pax-8 = Paired box protein Pax-8 (Homo sapiens, UniProt Q06710); experiment: inhibitors of PAX8-driven TPO luciferase reporter, dose response, RMG-I cells, cherry-pick (AID 687027); type: functional, cell-based;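 note: luciferase reporter driven by Pax8 target thyroperoxidase promoter measured by SteadyGlo luminescence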
[13] = P. falciparum Dd2 growth inhibitors, dose response, SYBR Green, cherry-picked samples (AID 1159567); type: functional, cell-based
[14] = P. falciparum Dd2 growth inhibitors, dose response, SYBR Green, dry powder samples (AID 1159566); type: functional, cell-based;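 note: potency for growth inhibition with lower SYBR green DNA signal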
[15] = cytotoxicity in COV362 ovarian cancer cells, dose response, cytotoxicity control for PAX8 inhibitor project, cell-based, plate reader, dry powder, SA12 (AID 743144); type: functional
[16] = PAX2 cell-based inhibition, dose response, selectivity assay for PAX8 inhibitor project, plate reader, dry powder samples (AID 743048); type: functional;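 note: HEK293 cells carrying a WT1 promoter luciferase reporter driven by expressed Pax2; potency is for inhibition of Pax2 driven reporter signal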
[17] = HepG2 cell cytotoxicity, dose response, cytotoxicity control, plate reader, dry powder samples (AID 1159569); type: functional, cell-based;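 note: inhibitor potency with signal falling toward the positive control level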
[18] = PAX5 activity inhibitors, dose response, selectivity assay for PAX8 inhibitor project, cell-based, plate reader, dry powder samples (AID 743047); type: functional;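 note: HEK293 cells carrying a Pax5 driven CD19 promoter luciferase reporter; potency of inhibitors that lower reporter luminescence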
[19] = cytotoxicity dependent on PAX8, dose response, cell-based, plate reader, dry powder (AID 743049); type: functional
[20] = P. falciparum 3D7-ScDHODH growth inhibitors, dose response, SYBR Green, dry powder samples (AID 1159570); type: functional, cell-based;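 note: parasite growth measured after 72 hours of compound exposure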
[21] = IGROV1 ovarian cancer cell cytotoxicity, dose response, PAX8 inhibitor project, plate reader, dry powder samples (AID 743043); type: functional, cell-based; conditions: IGROV-1
[22] = A2780 ovarian cancer cell cytotoxicity, dose response, cytotoxicity control, plate reader, dry powder samples (AID 743046); type: functional, cell-based
[23] = IOSE-T80 ovarian epithelial cell cytotoxicity, dose response, cytotoxicity control for PAX8 inhibitor project, plate reader, dry powder samples (AID 743045); type: functional, cell-based
[24] = NIH:OVCAR-3 ovarian cancer cell cytotoxicity, dose response, PAX8 inhibitor project, plate reader, dry powder samples (AID 743044); type: functional, cell-based
[25] = Late stage assay provider results from the probe development effort to identify selective inhibitors of heat shock protein 90 (HSP90): Absorbance-based cell proliferation assay in SKBR3 cells.; type: functional; conditions: SK-BR-3
[26] = Late stage assay provider results from the probe development effort to identify selective inhibitors of heat shock protein 90 (HSP90): Absorbance-based cell proliferation assay in MCF7 cells.; type: functional
[27] = Luminescence Cell-Based Dose Confirmation to Identify Activators of 5'UTR Stem-Loop Driven Alpha-Synuclein mRNA Translation in H4 Neuroglioblastoma Cells. [Related pubchem assays: 1829 (Project Summary), 1814 (Primary HTS)]; type: functional
[28] = Luminescence Cell-Based Dose Response HTS to Identify Activators of Luciferase Translation or Activity in H4 […] Cells. [Related pubchem assays: 1829 (Project Summary), 1814 (Primary HTS)]; type: functional
[29] = Luminescence Cell-Based Dose Response to Identify Activators of Luciferase Translation or Activity in H4-C Neuroglioblastoma Cells. [Related pubchem assays: 1829 (Project Summary), 1814 (Primary HTS)]; type: functional
[30] = Luminescence Cell-Based Dose Response to Identify Activators of 5'UTR Stem-Loop Driven Prion Protein mRNA Translation in H4-C Neuroglioblastoma Cells. [Related pubchem assays: 1829 (Project Summary), 1814 (Primary HTS)]; type: functional
[31] = cytotoxicity toward HCT116 cells – cell-based, CellTiter-Glo luminescence, IC50, dose response (AID 1117332); type: functional; conditions: HCT-116
[32] = SNU-C1 cell viability reduction, dose response, CellTiter-Glo luminescence (AID 1117323); type: functional, cell-based
[33] = cytotoxicity toward HT-29 cells – cell-based, CellTiter-Glo luminescence, IC50, dose response (AID 1117330); type: functional
[34] = RKO cell viability reduction, dose response, CellTiter-Glo luminescence (AID 1117322); type: functional
[35] = Concentration-dependent survival of SW480 colon cancer line, luminescence detection with CellTiter-Glo, half-maximal inhibitory concentration (AID 1117338); type: functional
[36] = HCT116 cell viability decrease, GSK3B pretreatment – CellTiter-Glo, IC50, dose response (AID 1117339); type: functional; conditions: HCT-116
[37] = cytotoxicity toward Colo320 cells – cell-based, CellTiter-Glo luminescence, IC50, dose response (AID 1117334); type: functional; conditions: COLO 320
[38] = CellTiter-Glo luminescent dose response of DLD-1 viability loss (AID 1117352); type: functional

Sequence of Paired box protein Pax-8 (Q06710 whole entry): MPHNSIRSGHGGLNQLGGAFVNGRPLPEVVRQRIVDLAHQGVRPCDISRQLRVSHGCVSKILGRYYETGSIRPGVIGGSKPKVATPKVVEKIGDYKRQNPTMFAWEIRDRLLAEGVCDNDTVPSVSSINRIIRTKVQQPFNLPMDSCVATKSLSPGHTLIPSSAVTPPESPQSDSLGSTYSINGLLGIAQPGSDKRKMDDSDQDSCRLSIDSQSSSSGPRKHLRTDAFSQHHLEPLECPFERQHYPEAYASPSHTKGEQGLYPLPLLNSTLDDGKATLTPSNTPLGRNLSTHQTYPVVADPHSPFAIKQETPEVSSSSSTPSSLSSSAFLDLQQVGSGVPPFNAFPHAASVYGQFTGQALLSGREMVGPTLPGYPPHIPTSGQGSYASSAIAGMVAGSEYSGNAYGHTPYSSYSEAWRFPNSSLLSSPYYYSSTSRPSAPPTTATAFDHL
Sequence of Glutathione-S-transferase (Q26513 whole entry): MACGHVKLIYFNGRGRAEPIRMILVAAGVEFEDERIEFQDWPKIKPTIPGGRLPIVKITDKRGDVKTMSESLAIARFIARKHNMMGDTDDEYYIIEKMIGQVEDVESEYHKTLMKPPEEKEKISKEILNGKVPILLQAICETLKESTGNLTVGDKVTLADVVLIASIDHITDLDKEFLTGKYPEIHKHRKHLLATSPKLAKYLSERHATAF
Sequence of Glucose-6-phosphate 1-dehydrogenase (P11413 whole entry, the tested form may be a part): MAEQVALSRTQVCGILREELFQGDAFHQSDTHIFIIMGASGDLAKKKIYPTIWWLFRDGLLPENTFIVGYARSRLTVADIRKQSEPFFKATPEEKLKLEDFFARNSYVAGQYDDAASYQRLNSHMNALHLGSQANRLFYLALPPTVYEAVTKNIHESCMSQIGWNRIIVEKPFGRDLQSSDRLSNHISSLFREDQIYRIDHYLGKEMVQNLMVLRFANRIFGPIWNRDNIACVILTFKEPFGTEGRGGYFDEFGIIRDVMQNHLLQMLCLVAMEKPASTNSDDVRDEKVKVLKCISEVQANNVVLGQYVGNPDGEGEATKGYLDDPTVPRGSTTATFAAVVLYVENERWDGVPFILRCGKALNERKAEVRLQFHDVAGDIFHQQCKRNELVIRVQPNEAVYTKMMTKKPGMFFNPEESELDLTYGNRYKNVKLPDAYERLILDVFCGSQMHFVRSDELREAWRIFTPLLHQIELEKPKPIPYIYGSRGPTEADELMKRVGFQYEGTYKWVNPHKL
Sequence of Estrogen receptor beta (Q92731 whole entry): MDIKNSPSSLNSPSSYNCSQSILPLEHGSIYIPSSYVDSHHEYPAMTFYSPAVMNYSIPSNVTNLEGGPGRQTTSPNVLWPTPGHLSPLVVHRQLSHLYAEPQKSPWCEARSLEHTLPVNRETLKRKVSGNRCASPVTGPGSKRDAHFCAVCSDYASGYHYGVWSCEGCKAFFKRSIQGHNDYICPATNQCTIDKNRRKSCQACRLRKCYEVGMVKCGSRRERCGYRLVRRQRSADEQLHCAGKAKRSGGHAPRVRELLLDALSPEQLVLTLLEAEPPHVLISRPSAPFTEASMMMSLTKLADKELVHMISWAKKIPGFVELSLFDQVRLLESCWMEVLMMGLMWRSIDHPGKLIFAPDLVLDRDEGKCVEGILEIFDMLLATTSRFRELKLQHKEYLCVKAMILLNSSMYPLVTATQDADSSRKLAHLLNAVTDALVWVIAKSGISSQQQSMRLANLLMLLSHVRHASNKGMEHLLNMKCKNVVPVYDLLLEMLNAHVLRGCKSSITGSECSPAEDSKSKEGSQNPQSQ

In the case of `Cn1nccc1NC(=O)Nc1ccc(Cl)cc1`, the IC50 [1] is reported as 93.4 µM (active).
For `COc1ccc(N2CC(C(=O)O)CC2=O)cc1` (configuration not stated), the IC50 (Estrogen receptor beta) was > 50 µM (not active).
With `COc1cccc(C=Nc2cc(C(C)C)c(O)cc2C)c1O` the CC50 [2] was 27.2 µM (active) and the IC50 [3] was 33.9 µM (inactive).
For `Fc1cccc(Cc2c(-c3ccco3)nc3c4ccccc4ccn23)c1`, the AC50 [4] was 1.12 µM (active), the AC50 [5] was 1.2 µM (active) and the AC50 [6] was 5.56 µM (active). For the same molecule, the AC50 [7] was 0.907 µM (active), the EC50 [8] was > 67.5 µM (inactive) and the AC50 [9] was 44 µM (active). For the same molecule, the IC50 [10] was > 67.5 µM (inactive).
In the case of `COc1cccc(C#Cc2ccc([C@@H]3[C@@H](C#N)N(C(=O)C4CCCCC4)[C@H]3CO)cc2)c1`, the AC50 [11] is reported as > 70 µM (inactive), the AC50 [12] is reported as 1.13 µM (active) and the AC50 (Paired box protein Pax-8) is reported as 8.61 µM (active). The AC50 [13] was 0.865 µM (active), the AC50 [14] was 0.422 µM (active) and the AC50 [15] was > 70 µM (inactive). The AC50 [16] was 46.5 µM (active), the AC50 [17] was 26.5 µM (active) and the AC50 [18] was 5.72 µM (active). For the same molecule, the AC50 [19] was 15.9 µM (active) and the AC50 [20] was 1.11 µM (active).
With `COc1ccc(-c2ccc3c(c2)[C@H]2[C@H](CCN2S(=O)(=O)c2ccc(OC)cc2)[C@H](CO)N3C)cc1` the AC50 [21] was 5.8 µM (active), the AC50 [11] was 7.31 µM (active) and the AC50 (Paired box protein Pax-8) was 7.21 µM (active). The AC50 [22] was 1.52 µM (active), the AC50 [23] was 6.56 µM (active) and the AC50 [24] was 3.15 µM (active).
With `CCCCCCCCOc1ccc(NC(=O)c2coc(=O)c(Br)c2)cc1` the IC50 [25] was 13.5 µM (inactive) and the IC50 [26] was 12.9 µM (inactive).
With `O=C(NCc1cccnc1)c1coc(=O)c(Br)c1` the IC50 [25] was 12.8 µM (inactive) and the IC50 [26] was 3.5 µM (active).
In the case of `CSc1nsc(N/N=C/c2ccc3c(c2)OCO3)c1C#N`, the EC50 [27] is reported as 0.415 µM (active), the EC50 [28] is reported as < 0.1 µM (inconclusive) and the EC50 [29] is reported as 0.303 µM (active). For the same molecule, the EC50 [30] was 0.314 µM (active).
With `O=C(NC(=O)c1c(F)cccc1F)Nc1ccc(Cl)c(Oc2ncc(C(F)(F)F)cc2Cl)c1` [FLUAZURON] the IC50 [31] was > 20 µM (inactive), the IC50 [32] was > 20 µM (inactive) and the IC50 [33] was > 20 µM (inactive). The IC50 [34] was 11.8 µM (inactive), the IC50 [35] was > 20 µM (inactive) and the IC50 [36] was 10.6 µM (inactive). The IC50 [37] was > 20 µM (inactive) and the IC50 [38] was > 20 µM (inactive).
In the case of `CC(=O)N(CC(O)CN(C(C)=O)c1c(I)c(C(=O)NCC(O)CO)c(I)c(C(=O)NCC(O)CO)c1I)c1c(I)c(C(=O)NCC(O)CO)c(I)c(C(=O)NCC(O)CO)c1I` (configuration not stated) [IODIXANOL], the IC50 [31] is reported as > 20 µM (inactive), the IC50 [32] is reported as > 20 µM (inactive) and the IC50 [33] is reported as > 20 µM (inactive). For the same molecule, the IC50 [34] was > 20 µM (inactive), the IC50 [35] was > 20 µM (inactive) and the IC50 [36] was > 20 µM (inactive). The IC50 [37] was > 20 µM (inactive) and the IC50 [38] was > 20 µM (inactive).
